Key:
[1] = target: T1, Amine oxidase [flavin-containing] A (Homo sapiens, UniProt P21397); assay: DRUGMATRIX: Monoamine Oxidase MAO-A enzyme inhibition (substrate: Kynuramine); parameters: species or system BTI-TN-5B1-4; details: bti-tn-5b1-4; Not Active = under 50% inhibition at 10 µM
T1 sequence (P21397 whole entry): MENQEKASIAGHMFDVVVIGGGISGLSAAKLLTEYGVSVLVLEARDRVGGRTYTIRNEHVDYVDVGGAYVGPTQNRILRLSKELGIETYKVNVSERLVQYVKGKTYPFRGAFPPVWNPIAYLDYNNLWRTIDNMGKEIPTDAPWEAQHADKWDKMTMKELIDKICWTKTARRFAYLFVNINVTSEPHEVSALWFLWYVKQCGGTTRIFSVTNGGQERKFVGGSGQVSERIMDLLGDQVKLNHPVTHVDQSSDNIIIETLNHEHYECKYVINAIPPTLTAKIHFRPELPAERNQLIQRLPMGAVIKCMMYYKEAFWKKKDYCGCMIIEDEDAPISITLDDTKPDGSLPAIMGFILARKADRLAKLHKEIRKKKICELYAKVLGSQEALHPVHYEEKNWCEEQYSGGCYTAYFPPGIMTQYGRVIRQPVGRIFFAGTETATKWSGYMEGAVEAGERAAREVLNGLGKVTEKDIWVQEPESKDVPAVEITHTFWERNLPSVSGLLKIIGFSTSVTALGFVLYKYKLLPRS

[2] = target: T2, 5-hydroxytryptamine receptor 2C (Homo sapiens, UniProt P28335); assay: DRUGMATRIX: Serotonin (5-Hydroxytryptamine) 5-HT2C radioligand binding (ligand: [3H] Mesulergine); format: cell membranes, CHO-K1, Membrane; details: Not Active = under 50% inhibition at 10 µM
T2 sequence (P28335 whole entry): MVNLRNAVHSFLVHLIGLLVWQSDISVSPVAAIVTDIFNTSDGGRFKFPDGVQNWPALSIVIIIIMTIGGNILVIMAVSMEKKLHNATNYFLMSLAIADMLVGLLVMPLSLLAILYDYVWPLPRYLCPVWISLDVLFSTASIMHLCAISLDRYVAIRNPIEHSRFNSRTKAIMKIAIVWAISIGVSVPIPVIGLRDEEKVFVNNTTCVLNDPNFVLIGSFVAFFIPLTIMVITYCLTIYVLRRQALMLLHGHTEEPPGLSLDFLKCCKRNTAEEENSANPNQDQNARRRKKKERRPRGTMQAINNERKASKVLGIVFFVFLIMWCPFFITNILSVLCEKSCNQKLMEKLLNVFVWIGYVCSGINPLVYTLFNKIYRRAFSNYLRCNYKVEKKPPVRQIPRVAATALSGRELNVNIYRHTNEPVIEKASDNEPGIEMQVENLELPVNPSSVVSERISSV

[3] = target: Cytochrome P450 2C19 (Homo sapiens, UniProt P33261); details: bti-tn-5b1-4; note: in other assays of this panel Not Active means under 50% inhibition at 10 µM
[4] = target: Cytochrome P450 2C9 (Homo sapiens, UniProt P11712); details: bti-tn-5b1-4; note: in other assays of this panel Not Active means under 50% inhibition at 10 µM
[5] = target: T3, Cysteinyl leukotriene receptor 1 (Homo sapiens, UniProt Q9Y271); format: cell membranes, Membrane; details: cho-k1; note: in other assays of this panel Not Active means under 50% inhibition at 10 µM
T3 sequence (Q9Y271 whole entry): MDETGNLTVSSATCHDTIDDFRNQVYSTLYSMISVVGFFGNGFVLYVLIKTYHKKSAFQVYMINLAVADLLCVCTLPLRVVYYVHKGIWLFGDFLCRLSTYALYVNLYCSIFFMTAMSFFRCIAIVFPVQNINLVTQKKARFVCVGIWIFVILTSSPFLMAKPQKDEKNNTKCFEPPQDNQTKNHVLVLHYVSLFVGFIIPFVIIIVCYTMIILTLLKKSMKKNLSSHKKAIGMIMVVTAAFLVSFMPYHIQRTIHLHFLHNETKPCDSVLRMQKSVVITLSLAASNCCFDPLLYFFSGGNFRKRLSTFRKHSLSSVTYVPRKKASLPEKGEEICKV

[6] = target: Sodium-dependent noradrenaline transporter (Homo sapiens, UniProt P23975); assay: DRUGMATRIX: Norepinephrine Transporter radioligand binding (ligand: [125I] RTI-55); format: cell membranes, MDCK, Membrane; details: Not Active = under 50% inhibition at 10 µM; for Ki: read-out: Ki
Sodium-dependent noradrenaline transporter, sequence (P23975 whole entry): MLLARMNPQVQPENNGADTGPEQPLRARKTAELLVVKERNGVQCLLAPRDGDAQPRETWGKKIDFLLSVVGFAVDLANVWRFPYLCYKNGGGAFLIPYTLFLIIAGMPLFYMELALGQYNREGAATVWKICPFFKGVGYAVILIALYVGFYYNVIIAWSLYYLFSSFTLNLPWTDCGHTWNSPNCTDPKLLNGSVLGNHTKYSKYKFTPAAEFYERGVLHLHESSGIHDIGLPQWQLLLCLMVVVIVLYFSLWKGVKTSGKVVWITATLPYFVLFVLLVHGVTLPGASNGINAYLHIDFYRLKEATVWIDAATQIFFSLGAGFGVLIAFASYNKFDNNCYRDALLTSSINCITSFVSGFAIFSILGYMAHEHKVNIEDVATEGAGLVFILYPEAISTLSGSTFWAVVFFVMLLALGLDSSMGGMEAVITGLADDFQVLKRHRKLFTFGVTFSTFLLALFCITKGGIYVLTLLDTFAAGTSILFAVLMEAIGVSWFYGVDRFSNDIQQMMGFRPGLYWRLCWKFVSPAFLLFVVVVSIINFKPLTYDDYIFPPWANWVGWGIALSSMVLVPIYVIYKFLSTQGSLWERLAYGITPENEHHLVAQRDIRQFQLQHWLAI

Cytochrome P450 2C9, sequence (P11712 whole entry): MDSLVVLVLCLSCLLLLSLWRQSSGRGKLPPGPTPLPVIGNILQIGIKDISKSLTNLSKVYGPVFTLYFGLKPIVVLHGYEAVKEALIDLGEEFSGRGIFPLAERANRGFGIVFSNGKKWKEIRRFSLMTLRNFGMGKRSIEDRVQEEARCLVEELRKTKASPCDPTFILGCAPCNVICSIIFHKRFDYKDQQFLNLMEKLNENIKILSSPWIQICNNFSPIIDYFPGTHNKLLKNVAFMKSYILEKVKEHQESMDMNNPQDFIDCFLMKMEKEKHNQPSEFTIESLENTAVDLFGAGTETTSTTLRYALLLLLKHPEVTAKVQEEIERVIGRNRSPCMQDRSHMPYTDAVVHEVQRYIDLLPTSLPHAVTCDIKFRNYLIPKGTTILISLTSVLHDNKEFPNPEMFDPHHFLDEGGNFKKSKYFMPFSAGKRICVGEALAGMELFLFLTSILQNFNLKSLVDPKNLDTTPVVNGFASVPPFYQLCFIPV
Cytochrome P450 2C19, sequence (P33261 whole entry): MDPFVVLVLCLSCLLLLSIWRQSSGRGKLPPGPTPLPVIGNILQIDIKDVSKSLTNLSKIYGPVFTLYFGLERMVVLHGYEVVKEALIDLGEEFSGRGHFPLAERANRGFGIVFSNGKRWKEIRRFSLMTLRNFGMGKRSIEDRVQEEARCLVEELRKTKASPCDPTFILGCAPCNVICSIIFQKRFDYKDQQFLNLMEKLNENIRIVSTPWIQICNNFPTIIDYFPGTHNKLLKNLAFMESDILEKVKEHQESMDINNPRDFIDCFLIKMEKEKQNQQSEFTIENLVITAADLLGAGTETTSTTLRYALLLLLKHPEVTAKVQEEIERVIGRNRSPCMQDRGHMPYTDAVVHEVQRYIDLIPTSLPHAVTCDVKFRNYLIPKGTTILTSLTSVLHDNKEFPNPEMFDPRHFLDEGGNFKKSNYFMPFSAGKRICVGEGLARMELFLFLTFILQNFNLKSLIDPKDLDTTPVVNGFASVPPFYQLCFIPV

SMILES | IC50 [1] | IC50 ([2]; cho-k1) | IC50 [3] | Ki [3] | IC50 [4] | Ki [4] | IC50 [5] | IC50 ([6]; mdck) | IC50 ([6]; read-out: IC50) | Ki [6] | IC50 ([2]; read-out: IC50) | Ki ([2]; read-out: Ki) | Ki [5]
Nn1nnc2ccccc21 | Not Active | Not Active | Not Active | Not Active | Not Active | Not Active | Not Active | Not Active | – | – | – | – | –
CC[C@]1(O)CC[C@H]2[C@@H]3CCC4=CCCC[C@@H]4[C@H]3CC[C@@]21C | Not Active | Not Active | – | – | Not Active | Not Active | Not Active | – | 2100 nM | 2080 nM | – | – | –
N[C@@H](Cc1ccc(F)cc1)C(=O)O | Not Active | Not Active | – | – | – | – | Not Active | Not Active | – | – | – | – | –
CCOC(=O)[C@H](CCc1ccccc1)N[C@@H](C)C(=O)N1Cc2ccccc2C[C@H]1C(=O)O | Not Active | Not Active | Not Active | Not Active | Not Active | Not Active | Not Active | Not Active | – | – | – | – | –
O=C(c1ccccc1Cl)N1CCC(Cc2ccccc2)CC1 | Not Active | Not Active | – | – | – | – | Not Active | Not Active | – | – | – | – | –
CCOC(=O)[C@H](CCc1ccccc1)N[C@@H](C)C(=O)N1CCC[C@H]1C(=O)O | Not Active | Not Active | Not Active | Not Active | Not Active | Not Active | Not Active | Not Active | – | – | – | – | –
Clc1cc2c(cc1Cl)Oc1cc(Cl)c(Cl)cc1O2 [2,3,7,8-TETRACHLORODIBENZO-P-DIOXIN] | Not Active | Not Active | Not Active | Not Active | Not Active | Not Active | Not Active | Not Active | – | – | – | – | –
C=C1/C(=C\C=C2/CCC[C@]3(C)[C@@H]([C@H](C)CCCC(C)C)CC[C@@H]23)C[C@@H](O)C[C@@H]1O [ALFACALCIDOL] | Not Active | Not Active | Not Active | Not Active | Not Active | Not Active | Not Active | – | – | – | – | – | –
C[C@@H]1CC[C@H]2[C@@H](C)C(=O)O[C@@H]3O[C@@]4(C)CC[C@@H]1[C@]32OO4 [ARTEMISININ] | Not Active | Not Active | – | – | – | – | Not Active | Not Active | – | – | – | – | –
CCc1oc2ccccc2c1C(=O)c1cc(Br)c(O)c(Br)c1 [BENZBROMARONE] | Not Active | Not Active | Not Active | Not Active | – | – | Not Active | Not Active | – | – | – | – | –
CCC[C@@H]1C[C@@H](C(=O)N[C@@H]([C@H]2O[C@H](SC)[C@H](O)[C@@H](O)[C@H]2O)[C@H](C)Cl)N(C)C1 [CLINDAMYCIN] | Not Active | Not Active | – | – | – | – | Not Active | Not Active | – | – | – | – | –
C#C[C@]1(O)CC[C@H]2[C@@H]3CCC4=Cc5oncc5C[C@]4(C)[C@H]3CC[C@@]21C [DANAZOL] | Not Active | Not Active | Not Active | Not Active | – | – | Not Active | – | – | – | – | – | –
CN1C(=O)CN=C(c2ccccc2)c2cc(Cl)ccc21 [DIAZEPAM] | Not Active | Not Active | – | – | – | – | Not Active | Not Active | – | – | – | – | –
CN1C[C@H](C(=O)N[C@]2(C)O[C@@]3(O)[C@@H]4CCCN4C(=O)[C@H](Cc4ccccc4)N3C2=O)C[C@@H]2c3cccc4[nH]cc(c34)C[C@H]21 [DIHYDROERGOTAMINE] | Not Active | – | – | – | Not Active | Not Active | Not Active | Not Active | – | – | 90 nM | 47 nM | –
C#C[C@]1(O)CC[C@H]2[C@@H]3CCc4cc(O)ccc4[C@H]3CC[C@@]21C [ETHINYL ESTRADIOL] | Not Active | Not Active | Not Active | Not Active | Not Active | Not Active | Not Active | – | – | – | – | – | –
O=C(O)Cc1ccc(-c2ccccc2)cc1 [FELBINAC] | Not Active | Not Active | – | – | Not Active | Not Active | Not Active | Not Active | – | – | – | – | –

SMILES | IC50 [1] | IC50 ([2]; cho-k1) | IC50 [3] | Ki [3] | IC50 [4] | Ki [4] | IC50 [5] | IC50 ([6]; mdck) | IC50 ([6]; read-out: IC50) | Ki [6] | IC50 ([2]; read-out: IC50) | Ki ([2]; read-out: Ki) | Ki [5]
CCOC(=O)C1=C(C)NC(C)=C(C(=O)OC)C1c1cccc(Cl)c1Cl (configuration not stated) [FELODIPINE] | Not Active | Not Active | – | – | – | – | Not Active | Not Active | – | – | – | – | –
Cc1cn[nH]c1 [FOMEPIZOLE] | Not Active | Not Active | – | – | – | – | Not Active | Not Active | – | – | – | – | –
Cc1cnc(C(=O)NCCc2ccc(S(=O)(=O)NC(=O)NC3CCCCC3)cc2)cn1 [GLIPIZIDE] | Not Active | Not Active | – | – | – | – | Not Active | Not Active | – | – | – | – | –
COc1ccccc1OCC(O)CO (configuration not stated) [GUAIFENESIN] | Not Active | Not Active | – | – | – | – | Not Active | Not Active | – | – | – | – | –
C[C@]12CCC(=O)C=C1CC[C@@H]1[C@@H]2[C@@H](O)C[C@@]2(C)[C@H]1CC[C@]2(O)C(=O)CO [HYDROCORTISONE] | Not Active | Not Active | Not Active | Not Active | Not Active | Not Active | Not Active | – | – | – | – | – | –
C/C=C\c1ccc(O)c(OC)c1 [ISOEUGENOL] | Not Active | Not Active | – | – | – | – | Not Active | Not Active | – | – | – | – | –
CC[C@H](C)C(=O)O[C@H]1C[C@@H](C)C=C2C=C[C@H](C)[C@H](CC[C@@H]3C[C@@H](O)CC(=O)O3)[C@H]21 [LOVASTATIN] | Not Active | Not Active | – | – | – | – | Not Active | – | 8750 nM | 8680 nM | – | – | –
CC(=O)O[C@]1(C(C)=O)CC[C@H]2[C@@H]3C=C(C)C4=CC(=O)CC[C@]4(C)[C@H]3CC[C@@]21C [MEGESTROL ACETATE] | Not Active | Not Active | Not Active | Not Active | – | – | Not Active | Not Active | – | – | – | – | –
CN(Cc1cnc2nc(N)nc(N)c2n1)c1ccc(C(=O)N[C@@H](CCC(=O)O)C(=O)O)cc1 [METHOTREXATE] | Not Active | Not Active | Not Active | Not Active | – | – | Not Active | Not Active | – | – | – | – | –
COc1ccc2cc(CCC(C)=O)ccc2c1 [NABUMETONE] | – | Not Active | Not Active | Not Active | Not Active | Not Active | Not Active | – | 1870 nM | 1850 nM | – | – | –
O=C(O)c1cccnc1 [NIACIN] | Not Active | Not Active | Not Active | Not Active | – | – | Not Active | Not Active | – | – | – | – | –
CNC(=C[N+](=O)[O-])NCCSCc1csc(CN(C)C)n1 [NIZATIDINE] | Not Active | Not Active | – | – | Not Active | Not Active | Not Active | Not Active | – | – | – | – | –
COc1ccc(Cc2nccc3cc(OC)c(OC)cc23)cc1OC [PAPAVERINE] | Not Active | Not Active | – | – | Not Active | Not Active | – | Not Active | – | – | – | – | Not Active
OCCN1CCN(CCCN2c3ccccc3Sc3ccc(Cl)cc32)CC1 [PERPHENAZINE] | Not Active | Not Active | – | – | – | – | Not Active | Not Active | – | – | – | – | –
CC(C)(Sc1cc(C(C)(C)C)c(O)c(C(C)(C)C)c1)Sc1cc(C(C)(C)C)c(O)c(C(C)(C)C)c1 [PROBUCOL] | Not Active | Not Active | – | – | Not Active | Not Active | Not Active | Not Active | – | – | – | – | –

Reference: ChEMBL document CHEMBL1909046, “DrugMatrix in vitro pharmacology data”
